ChEMBL document CHEMBL6078665, “Structural optimization of naturally derived Ar-turmerone, as novel neuroinflammation suppressors effective in an Alzheimer mouse model” (Bioorg Med Chem, 2025)
Activity calls are given as the source filed them. No cut-off for these calls is given here.

Assays:
BV-2 [1] = assay: (§1) Cytotoxicity against LPS-induced mouse BV-2 cells assessed as cell survival at 80 uM measured after 24 hrs incubation by MTT assay; assay type: toxicity, cell-based; conditions: bv-2, 24 h, 80 µM
BV-2 [2] = assay: Anti-inflammatory activity against LPS-induced mouse BV-2 cells assessed as inhibition rate of LPS-induced […] production at 80 uM pretreated for 1 hr followed by challenged with LPS and measured after 24 hrs incubation by Griess assay; assay type: functional; conditions: time 25 hrs
BV-2 [3] = assay: Anti-inflammatory activity against LPS-induced mouse BV-2 cells assessed as inhibition rate of LPS-induced NO production pretreated for 1 hr followed by challenged with LPS and measured after 24 hrs incubation by Griess assay; assay type: functional, cell-based
BV-2 [4] = assay: Anti-inflammatory activity against LPS-induced mouse BV-2 cells assessed as inhibition rate of LPS-induced TNFalpha production pretreated for 1 hr followed by challenged with LPS and measured after 24 hrs incubation by ELISA assay; assay type: functional, cell-based
BV-2 [5] = assay: Anti-inflammatory activity against LPS-induced mouse BV-2 cells assessed as inhibition rate of LPS-induced IL-1beta production pretreated for 1 hr followed by challenged with LPS and measured after 24 hrs incubation by ELISA assay; assay type: functional, cell-based
[6] = as §1; assay type: toxicity, cell-based; conditions: LPS-induced BV-2 cells, read-out: Survival
Mus musculus [7] = assay: Anti-neuroinflammatory activity against LPS-induced spatial learning loss in C57BL/6 mouse model assessed as shortening of escape latency at 100 mg/kg, po measured up to 5 days by Morris water maze test; assay type: functional, organism-based; conditions: time <= 5.0 day
Mus musculus [8] = assay: Anti-neuroinflammatory activity against LPS-induced spatial learning in C57BL/6 mouse model assessed as swimming pathway at 100 mg/kg, po measured up to 5 days by Morris water maze test; assay type: functional, organism-based; conditions: time <= 5.0 day
Mus musculus [9] = assay: Anti-neuroinflammatory activity against LPS-induced C57BL/6 mouse model assessed as reversal of LPS-induced TNFalpha increase in hippocampal homogenate at 100 mg/kg, po measured up to 5 days by ELISA kit; assay type: functional, organism-based; conditions: time <= 5.0 day
Mus musculus [10] = assay: Anti-neuroinflammatory activity against LPS-induced C57BL/6 mouse model assessed as reversal of LPS-induced IL-1 beta increase in hippocampal homogenate at 100 mg/kg, po measured up to 5 days by ELISA kit; assay type: functional, organism-based; conditions: time <= 5.0 day
Mus musculus [11] = assay: Anti-neuroinflammatory activity against LPS-induced C57BL/6 mouse model assessed as reversal of LPS-induced TNFalpha increase in cortex at 100 mg/kg, po measured up to 5 days by ELISA kit; assay type: functional, organism-based; conditions: time <= 5.0 day
Mus musculus [12] = assay: Anti-neuroinflammatory activity against LPS-induced C57BL/6 mouse model assessed as reversal of LPS-induced IL-1 beta increase in cortex at 100 mg/kg, po measured up to 5 days by ELISA kit; assay type: functional, organism-based; conditions: time <= 5.0 day
Mus musculus [13] = assay: Anti-neuroinflammatory activity against LPS-induced neuronal damage C57BL/6 mouse model assessed as restoration of number of normal neuronal cells in hippocampus at 100 mg/kg, po measured up to 5 days by Nissl staining based assay; assay type: functional, organism-based; conditions: time <= 5.0 day
Mus musculus [14] = assay: Anti-neuroinflammatory activity against LPS-induced neuronal damage C57BL/6 mouse model assessed as restoration of number of normal neuronal cells in cortex at 100 mg/kg, po measured up to 5 days by Nissl staining based assay; assay type: functional, organism-based; conditions: time <= 5.0 day
Mus musculus [15] = assay: Anti-neuroinflammatory activity against LPS-induced reference memory loss in C57BL/6 mouse model assessed as increase in time spent in target quadrant at 100 mg/kg, po measured up to 5 days by reference memory (probe trial) test; assay type: functional, organism-based; conditions: time <= 5.0 day
Mus musculus [16] = assay: Anti-neuroinflammatory activity against LPS-induced reference memory loss in C57BL/6 mouse model assessed as increase in number of times cross the target quadrant at 100 mg/kg, po measured up to 5 days by reference memory (probe trial) test; assay type: functional, organism-based; conditions: time <= 5.0 day

| Structure (SMILES) | inhibition at 80 µM (BV-2 [2]) [%] | IC50 (BV-2 [3]) [µM] | IC50 (BV-2 [4]) [µM] | IC50 (BV-2 [5]) [µM] | viability at 24 h, 80 µM [6] [%] | also measured |
| --- | --- | --- | --- | --- | --- | --- |
| CC(C)=CC(=O)CC(c1ccc(-c2ccccc2)cc1)C(C)C (centres undefined) | 69.7 | 26.6 | 51.4 | 56.2 | – | Activity (BV-2 [1]): Non-toxic |
| CC(C)=CC(=O)NC(C)c1ccc(C(F)(F)F)cc1 (centres undefined) | 28 | – | – | – | > 80 | – |
| CC(C)=CC(=O)OC(C)c1ccc(Cl)cc1 (centres undefined) | 15.8 | – | – | – | > 80 | – |
| CC(C)=CC(=O)CC(C)c1ccc(C)cc1 (racemic) | 81.5 | 30.2 | 42.5 | 19.7 | > 80 | – |
| CC(C)=CC(=O)CC(C)c1ccc(-c2ccccc2)cc1 (centres undefined) | 18.9 | – | – | – | – | Activity (BV-2 [1]): Non-toxic |
| CC(C)=CC(=O)OC(C)c1ccccc1 (centres undefined) | 24.9 | – | – | – | – | – |
| CC(C)=CC(=O)NC(C)c1ccc(Cl)cc1 (centres undefined) | 38 | – | – | – | > 80 | – |
| CC(C)=CC(=O)OC(C)c1ccc(-c2ccccc2)cc1 (centres undefined) | 44.5 | – | – | – | > 80 | – |
| CCCc1ccc(CNC(=O)C=C(C)C)cc1 | 59.8 | 49.4 | 53.6 | 43.9 | > 80 | – |
| CC(C)=CC(=O)NC(c1ccccc1)c1ccc(C)cc1 (centres undefined) | 71 | 30.4 | 50.3 | 54.1 | > 80 | Activity (Mus musculus [7]): Active; Activity (Mus musculus [8]): Active; Activity (Mus musculus [9]): Active; Compound Exhibited Superior Effect Compared To Ar-Turmerone; Activity (Mus musculus [10]): Active; Compound Exhibited Superior Effect Compared To Ar-Turmerone |
| CC(C)=CC(=O)OC(C)c1ccc2ccccc2c1 (centres undefined) | 7.97 | – | – | – | > 80 | – |
| CC(C)=CC(=O)CC(c1ccc(F)cc1)c1ccc(C(F)(F)F)cc1 (centres undefined) | 19.1 | – | – | – | > 80 | – |
| CC(C)=CC(=O)CC(c1ccc(C)cc1)c1ccc(F)cc1 (centres undefined) | 8.15 | – | – | – | > 80 | – |
| CC(C)=CC(=O)C[C@@H](C)c1ccc(C)cc1 | – | 29.1 | 40.9 | 23.1 | – | – |
| CC(C)=CC(=O)CC(C)c1ccccc1Cl (centres undefined) | 47.7 | – | – | – | > 80 | – |
| CC(C)=CC(=O)CC(C)c1ccc(C(F)(F)F)cc1 (centres undefined) | 26.8 | – | – | – | > 80 | – |
| CC(C)=CC(=O)NC(C)c1ccc(C)cc1 (centres undefined) | 79.8 | 17.3 | 27.5 | 14 | > 80 | Activity (Mus musculus [7]): Active; Activity (Mus musculus [8]): Active; Activity (Mus musculus [9]): Active; Activity (Mus musculus [10]): Active; Activity (Mus musculus [11]): Active; Activity (Mus musculus [12]): Active |
| CC(C)=CC(=O)C[C@H](C)c1ccc(C)cc1 | – | 25.4 | 39.9 | 18.5 | > 80 | Activity (Mus musculus [9]): Active; Activity (Mus musculus [10]): Active; Activity (Mus musculus [13]): Active; Activity (Mus musculus [14]): Active |
| CCCC(OC(=O)C=C(C)C)c1ccc(-c2ccccc2)cc1 (centres undefined) | 14.9 | – | – | – | > 80 | – |
| CC(C)=CC(=O)NC(C)c1ccccc1 (centres undefined) | 22.3 | – | – | – | – | – |
| CC(C)=CC(=O)NC(C)c1ccc2ccccc2c1 (centres undefined) | 60.1 | 44.2 | 24.5 | 32.5 | > 80 | Activity (Mus musculus [7]): Active; Activity (Mus musculus [8]): Active; Activity (Mus musculus [15]): Active; Activity (Mus musculus [16]): Active; Activity (Mus musculus [9]): Active; Activity (Mus musculus [10]): Active; Activity (Mus musculus [11]): Active; Activity (Mus musculus [12]): Active; Activity (Mus musculus [13]): Active; Compound Exhibited Superior Effect Compared To Ar-Turmerone And Ttp488; Activity (Mus musculus [14]): Active; Compound Exhibited Superior Effect Compared To Ar-Turmerone And Ttp488 |
| CC(C)=CC(=O)CC(c1ccc(F)cc1)c1ccc(-c2ccccc2)cc1 (centres undefined) | 29.3 | – | – | – | – | Activity (BV-2 [1]): Non-toxic |
| CC(C)=CC(=O)OC(C)c1ccc(C)cc1 (centres undefined) | 64.5 | 42.5 | 28.5 | 34 | > 80 | Activity (Mus musculus [7]): Active; Activity (Mus musculus [8]): Active; Activity (Mus musculus [9]): Active; Activity (Mus musculus [10]): Active |
| CC(C)=CC(=O)CC(c1ccc(C)cc1)C(C)C (centres undefined) | 71 | 30.9 | 46.5 | 42.4 | > 80 | – |
| CC(C)=CC(=O)OC(C)c1ccc(C(F)(F)F)cc1 (centres undefined) | 28.2 | – | – | – | > 80 | – |
| CC(C)=CC(=O)NC(C)c1ccc(-c2ccccc2)cc1 (centres undefined) | 16.9 | – | – | – | – | Activity (BV-2 [1]): Non-toxic |
| CCCCc1nc(-c2ccc(OCCCN(CC)CC)cc2)cn1-c1ccc(Oc2ccc(Cl)cc2)cc1 | – | – | – | – | – | Activity (Mus musculus [15]): Active; Activity (Mus musculus [16]): Active; Activity (Mus musculus [9]): Active; Activity (Mus musculus [10]): Active |
